Assays:
[1] = test system: mouse pups; assay: Cross-fostering study of WT and St6Gal1 KO (6SL KO) mouse pups reared to WT or KO dams, with cognitive tests (T-maze, pre-pulse inhibition, Barnes maze, attentional set-shifting) in adulthood; format: in vivo; conditions: mouse pups receiving milk absent of 6′-SL, compared with pups receiving milk comprising 6′-SL; evaluated as adults
From the text: (§1) This effects were observed on a background of no changes in term of neurodevelopment evaluated by the onset and strength of reflexes using the Fox scale.
Adult wild-type (WT) B6.129 and heterozygous (HZ) B6.129-St6gal1^tm2Jxm breeding pairs (four males and four females and three males and four females, respectively) were purchased from a commercial breeder (The Jackson Laboratory). Upon arrival, same-sex mice were housed in same-sex groups of 2-3 in type-1 polycarbonate cages (33.0×13.0×14.0 cm) equipped with sawdust bedding, an enrichment bag (Mucedola, Settimo Milanese, Italy), metal top and ad libitum water and food pellets (Mucedola, Settimo Milanese, Italy). Mice were maintained on a reversed 12-h-light-dark cycle (light on at 7:00 PM) in an air-conditioned room (temperature 21±1° C. and relative humidity 60±10%). Two weeks after arrival, breeding triads (one male, two females) were formed. After two weeks of mating, male mice were removed and females were housed individually in standard type-1 cages. Females were checked daily for delivery and the day in which they gave birth was designated as postnatal day (PND) 0. Apart from cage cleaning once a week, dams and their offspring were kept undisturbed until weaning (on PND 25). […]
The aforementioned subjects have then been evaluated for neurodevelopmental milestones, cognitive capabilities (inc. attention) as outlined in figure two. […]

[2] = test system: mouse pups; assay: Neurodevelopmental milestones: onset and strength of reflexes on the Fox scale; format: in vivo; conditions: mouse pups receiving milk absent of 6′-SL, compared with pups receiving milk comprising 6′-SL
Description: as §1
On PND3, PND7, and PND12 mice were evaluated for the onset of neurodevelopmental milestones through the administration of Fox scales. The latter consist of a series of rapid tests to evaluate the maturity of a series of reflexes: righting (capability of mice to turn over with all four paws on the ground when placed on its back); grasping (the mouse is placed on a wire-mesh grid which is progressively tilted until the subject harmlessly falls on a soft surface, positioned 2 cm below the grid); cliff aversion (which measures the capability of mice to withdraw from a perceived visual cliff). Furthermore, pups' bodyweight and body length were constantly monitored throughout development.

- neurodevelopment evaluated by the onset and strength of reflexes using the Fox scale [2]: no changes
SMILES: CC(=O)N[C@H]1[C@H]([C@H](O)[C@H](O)CO)O[C@@](OC[C@H]2O[C@@H](O[C@H]3[C@H](O)[C@@H](O)C(O)O[C@@H]3CO)[C@H](O)[C@@H](O)[C@H]2O)(C(=O)O)C[C@@H]1O (stereo partly drawn) [6′-sialyllactose, (6R)-5-Acetamido-3,5-dideoxy-6-[(1R,2R)-1,2,3-trihydroxypropyl]-β-L-threo-hex-2-ulopyranonosyl-(2->6)-β-D-galactopyranosyl-(1->4)-D-glucopyranose]
- attention [1]: decreased attention
- impulsivity [1]: increased impulsivity

From patent US11872238B2, “Nutritional composition for use to enhance attention and/or reduce impulsivity” (SOCIETE DES PRODUITS NESTLE S.A., priority 2017, dated 2024)
